Tests used:
human recombinant HDAC6 = biological target: T1, human recombinant HDAC6 (Homo sapiens, UniProt Q9UBN7); test: HDAC6 enzyme activity inhibition (HDAC Fluorimetric Drug Discovery Kit); format: biochemical; conditions: for HDAC6 selectivity (fold): HDAC1 IC50 / HDAC6 IC50; for IC50: human recombinant HDAC6, IC50 calculated with GraphPad Prism
T1 construct: purchased Calbiochem Inc. 382180
T1 sequence (Q9UBN7 1-1215): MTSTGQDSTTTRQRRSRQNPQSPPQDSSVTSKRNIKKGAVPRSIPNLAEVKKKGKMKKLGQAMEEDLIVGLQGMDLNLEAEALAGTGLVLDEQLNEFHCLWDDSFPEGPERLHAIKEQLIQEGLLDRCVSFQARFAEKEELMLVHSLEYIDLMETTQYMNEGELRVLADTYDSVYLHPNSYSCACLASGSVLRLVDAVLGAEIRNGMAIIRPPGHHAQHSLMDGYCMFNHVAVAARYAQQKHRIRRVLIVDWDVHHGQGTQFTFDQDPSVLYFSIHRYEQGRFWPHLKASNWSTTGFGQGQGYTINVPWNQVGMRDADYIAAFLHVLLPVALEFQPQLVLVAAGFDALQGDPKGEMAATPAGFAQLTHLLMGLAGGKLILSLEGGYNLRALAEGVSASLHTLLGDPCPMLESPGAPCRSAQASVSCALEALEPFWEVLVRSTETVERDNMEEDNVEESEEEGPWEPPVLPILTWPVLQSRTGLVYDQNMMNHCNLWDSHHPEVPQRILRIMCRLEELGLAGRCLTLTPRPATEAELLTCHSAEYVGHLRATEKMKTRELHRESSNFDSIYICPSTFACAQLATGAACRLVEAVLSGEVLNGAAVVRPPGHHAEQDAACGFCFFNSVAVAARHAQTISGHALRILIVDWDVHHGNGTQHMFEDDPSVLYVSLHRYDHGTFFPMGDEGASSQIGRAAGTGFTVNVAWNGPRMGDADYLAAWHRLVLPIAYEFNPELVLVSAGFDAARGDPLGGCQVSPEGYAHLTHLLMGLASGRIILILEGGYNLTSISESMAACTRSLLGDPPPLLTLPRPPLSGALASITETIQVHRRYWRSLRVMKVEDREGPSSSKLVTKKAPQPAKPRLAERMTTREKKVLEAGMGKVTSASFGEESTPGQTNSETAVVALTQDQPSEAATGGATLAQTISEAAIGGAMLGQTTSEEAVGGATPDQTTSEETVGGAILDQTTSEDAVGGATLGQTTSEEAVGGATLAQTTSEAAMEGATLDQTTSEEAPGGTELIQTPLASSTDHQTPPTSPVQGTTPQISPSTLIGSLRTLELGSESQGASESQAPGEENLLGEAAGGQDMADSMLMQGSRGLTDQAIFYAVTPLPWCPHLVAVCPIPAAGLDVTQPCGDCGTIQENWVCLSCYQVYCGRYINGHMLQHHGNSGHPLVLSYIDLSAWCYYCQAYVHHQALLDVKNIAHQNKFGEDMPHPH
How it was run: (§1)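 Fluorimetric deacetylase read-out: after 30 min with Developer II following a 60 min, 30° C reaction of recombinant enzyme ([…]) with 10 μM substrate, across five-fold serial compound dilutions.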

human recombinant HDAC1 = biological target: T2, human recombinant HDAC1 (Homo sapiens, UniProt Q13547); test: HDAC1 enzyme activity inhibition (HDAC Fluorimetric Drug Discovery Kit); format: biochemical; conditions: human recombinant HDAC1; IC50 calculated with GraphPad Prism; read-out: HDAC1
T2 construct: purchased Enzo Life Science, Inc. BML-SE456
How it was run: as §1

T2 sequence (Q13547 whole entry): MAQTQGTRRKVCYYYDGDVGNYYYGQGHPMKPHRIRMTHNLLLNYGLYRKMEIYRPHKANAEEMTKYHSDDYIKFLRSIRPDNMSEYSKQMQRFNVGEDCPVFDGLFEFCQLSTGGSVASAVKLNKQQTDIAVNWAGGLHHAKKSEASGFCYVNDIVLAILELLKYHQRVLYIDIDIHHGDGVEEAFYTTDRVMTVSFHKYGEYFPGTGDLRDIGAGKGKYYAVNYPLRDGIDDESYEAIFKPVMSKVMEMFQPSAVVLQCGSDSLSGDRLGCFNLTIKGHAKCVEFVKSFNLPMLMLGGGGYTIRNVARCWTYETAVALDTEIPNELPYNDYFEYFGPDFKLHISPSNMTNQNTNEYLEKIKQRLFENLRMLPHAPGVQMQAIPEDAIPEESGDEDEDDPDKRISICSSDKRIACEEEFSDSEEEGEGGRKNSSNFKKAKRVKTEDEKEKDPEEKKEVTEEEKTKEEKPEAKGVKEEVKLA

Row | SMILES | HDAC6 selectivity (fold) (human recombinant HDAC6) | IC50 (human recombinant HDAC6) [µM] | IC50 (human recombinant HDAC1) [µM]
1 | CC(C)N1CC(c2cccc(-c3cn(Cc4ccc(-c5nnc(C(F)F)o5)cc4F)nn3)c2)C1 [Compound 4461, 2-(difluoromethyl)-5-(3-fluoro-4-((4-(3-(1-isopropylazetidin-3-yl)phenyl)-1H-1,2,3-triazol-1-yl)methyl)phenyl)-1,3,4-oxadiazole] | 759 | 0.0658 | > 50
2 | Fc1cc(-c2nnc(C(F)F)o2)ccc1Cn1cc(-c2cccc(C3CN(C4COC4)C3)c2)nn1 [Compound 4462, 2-(difluoromethyl)-5-(3-fluoro-4-((4-(3-(1-(oxetan-3-yl)azetidin-3-yl)phenyl)-1H-1,2,3-triazol-1-yl)methyl)phenyl)-1,3,4-oxadiazole] | 540 | 0.0925 | > 50
3 | O=C(Nc1cccc(-c2cn(Cc3ccc(-c4nnc(C(F)F)o4)cn3)nn2)c1)C1CNC1 [Compound 4463, N-(3-(1-((5-(5-(difluoromethyl)-1,3,4-oxadiazol-2-yl)pyridin-2-yl)methyl)-1H-1,2,3-triazol-4-yl)phenyl)azetidin-3-carboxamide] | 1046 | 0.0478 | > 50
4 | CCN1CC(C(=O)Nc2cccc(-c3cn(Cc4ccc(-c5nnc(C(F)F)o5)cn4)nn3)c2)C1 [Compound 4464, N-(3-(1-((5-(5-(difluoromethyl)-1,3,4-oxadiazol-2-yl)pyridin-2-yl)methyl)-1H-1,2,3-triazol-4-yl)phenyl)-1-ethylazetidin-3-carboxamide] | 1650 | 0.0303 | > 50
5 | O=C(Nc1cccc(-c2cn(Cc3ccc(-c4nnc(C(F)F)o4)cn3)nn2)c1)C1CN(C2COC2)C1 [Compound 4465] | 2222 | 0.0225 | > 50
6 | Fc1cc(-c2nnc(C(F)F)o2)ccc1Cn1cc(-c2ccc(CN3CCC3)cc2)nn1 [Compound 4466, 2-(4-((4-(4-(azetidin-1-ylmethyl)phenyl)-1H-1,2,3-triazol-1-yl)methyl)-3-fluorophenyl)-5-(difluoromethyl)-1,3,4-oxadiazole] | 6944 | 0.0072 | > 50
7 | Fc1cc(-c2nnc(C(F)F)o2)ccc1Cn1cc(-c2ccc(CN3CC(F)C3)cc2)nn1 [Compound 4467, 2-(difluoromethyl)-5-(3-fluoro-4-((4-(4-((3-fluoroazetidin-1-yl)methyl)phenyl)-1H-1,2,3-triazol-1-yl)methyl)phenyl)-1,3,4-oxadiazole] | 2283 | 0.0219 | > 50
8 | Fc1cc(-c2nnc(C(F)F)o2)ccc1Cn1cc(-c2ccc(CNC3CCC3)cc2)nn1 [Compound 4468, N-(4-(1-(4-(5-(difluoromethyl)-1,3,4-oxadiazol-2-yl)-2-fluorobenzyl)-1H-1,2,3-triazol-4-yl)benzyl)cyclobutanamine] | 370 | 0.0135 | > 50
9 | Fc1cc(-c2nnc(C(F)F)o2)ccc1Cn1cc(-c2ccc(CNC3COC3)cc2)nn1 [Compound 4469, N-(4-(1-(4-(5-(difluoromethyl)-1,3,4-oxadiazol-2-yl)-2-fluorobenzyl)-1H-1,2,3-triazol-4-yl)benzyl)oxetan-3-amine] | 847 | 0.059 | > 50
10 | CN1CC(NCc2ccc(-c3cn(Cc4ccc(-c5nnc(C(F)F)o5)cc4F)nn3)cc2)C1 [Compound 4470, N-(4-(1-(4-(5-(difluoromethyl)-1,3,4-oxadiazol-2-yl)-2-fluorobenzyl)-1H-1,2,3-triazol-4-yl)benzyl)-1-methylazetidin-3-amine] | 915 | 0.0546 | > 50
11 | Fc1cc(-c2nnc(C(F)F)o2)ccc1Cn1cc(-c2ccc(CN3CCOCC3)cc2)nn1 [Compound 4471, 4-(4-(1-(4-(5-(difluoromethyl)-1,3,4-oxadiazol-2-yl)-2-fluorobenzyl)-1H-1,2,3-triazol-4-yl)benzyl)morpholine] | 1116 | 0.0448 | > 50
12 | Fc1cc(-c2nnc(C(F)F)o2)ccc1Cn1cc(-c2ccc(CN3CCC(F)(F)CC3)cc2)nn1 [Compound 4472, 2-(difluoromethyl)-5-(4-((4-(4-((4,4-difluoropiperidin-1-yl)methyl)phenyl)-1H-1,2,3-triazol-1-yl)methyl)-3-fluorophenyl)-1,3,4-oxadiazole] | 407 | 0.123 | > 50
13 | CN1CCN(Cc2ccc(-c3cn(Cc4ccc(-c5nnc(C(F)F)o5)cc4F)nn3)cc2)CC1 [Compound 4473, 2-(difluoromethyl)-5-(3-fluoro-4-((4-(4-((4-methylpiperazin-1-yl)methyl)phenyl)-1H-1,2,3-triazol-1-yl)methyl)phenyl)-1,3,4-oxadiazole] | 1253 | 0.0399 | > 50
14 | CCN1CCN(Cc2ccc(-c3cn(Cc4ccc(-c5nnc(C(F)F)o5)cc4F)nn3)cc2)CC1 [Compound 4474, 2-(difluoromethyl)-5-(4-((4-(4-((4-ethylpiperazin-1-yl)methyl)phenyl)-1H-1,2,3-triazol-1-yl)methyl)-3-fluorophenyl)-1,3,4-oxadiazole] | 1213 | 0.0412 | > 50
15 | CC(C)N1CCN(Cc2ccc(-c3cn(Cc4ccc(-c5nnc(C(F)F)o5)cc4F)nn3)cc2)CC1 [Compound 4475, 2-(difluoromethyl)-5-(3-fluoro-4-((4-(4-((4-isopropylpiperazin-1-yl)methyl)phenyl)-1H-1,2,3-triazol-1-yl)methyl)phenyl)-1,3,4-oxadiazole] | 1269 | 0.0394 | > 50
16 | OCc1ccc(-c2cn(Cc3ccc(-c4nnc(C(F)F)o4)cc3F)nn2)cc1 [Compound 4476, (4-(1-(4-(5-(difluoromethyl)-1,3,4-oxadiazol-2-yl)-2-fluorobenzyl)-1H-1,2,3-triazol-4-yl)phenyl)methanol] | 1022 | 0.0489 | > 50
17 | Fc1cc(-c2nnc(C(F)F)o2)ccc1Cn1cc(-c2ccc(CNC3CCC(F)(F)CC3)cc2)nn1 [Compound 4477, N-(4-(1-(4-(5-(difluoromethyl)-1,3,4-oxadiazol-2-yl)-2-fluorobenzyl)-1H-1,2,3-triazol-4-yl)benzyl)-4,4-difluorocyclohexan-1-amine] | 2008 | 0.0249 | > 50
18 | OCc1c(-c2ccccc2)nnn1Cc1ccc(-c2nnc(C(F)F)o2)cn1 [Compound 4478, (1-((5-(5-(difluoromethyl)-1,3,4-oxadiazol-2-yl)pyridin-2-yl)methyl)-4-phenyl-1H-1,2,3-triazol-5-yl)methanol] | 437 | 0.114 | > 50
19 | OCc1c(-c2ccccc2)nnn1Cc1ccc(-c2nnc(C(F)F)o2)cc1F [Compound 4479, (1-(4-(5-(difluoromethyl)-1,3,4-oxadiazol-2-yl)-2-fluorobenzyl)-4-phenyl-1H-1,2,3-triazol-5-yl)methanol] | 103 | 0.483 | > 50
20 | CN1CC(NC(=O)c2cccc(-c3cn(Cc4ccc(-c5nnc(C(F)F)o5)cn4)nn3)c2)C1 [Compound 4480, 3-(1-((5-(5-(difluoromethyl)-1,3,4-oxadiazol-2-yl)pyridin-2-yl)methyl)-1H-1,2,3-triazol-4-yl)-N-(1-methylazetidin-3-yl)benzamide] | 1388 | 0.036 | > 50
21 | CCN1CCN(C(=O)c2cccc(-c3cn(Cc4ccc(-c5nnc(C(F)F)o5)cn4)nn3)c2)CC1 [Compound 4482, (3-(1-((5-(5-(difluoromethyl)-1,3,4-oxadiazol-2-yl)pyridin-2-yl)methyl)-1H-1,2,3-triazol-4-yl)phenyl)(4-ethylpiperazin-1-yl)methanone] | 943 | 0.053 | > 50
